From ChEMBL document CHEMBL3714766, “Tetrahydroisoquinoline compounds and their use as pyruvate dehydrogenase kinase inhibitors” (2015)

Target: Pyruvate dehydrogenase kinase (Homo sapiens, UniProt Q15119+Q15120+Q16654+Q15118)
Test: Binding affinity to pyruvate dehydrogenase kinase (unknown origin) by VER-00160364 probe based fluorescence polarization assay

SMILES | IC50
Cc1c(Cl)nc(Cl)nc1-c1ccc2c(c1)CC[C@H](C)N2C(=O)c1ccc(O)cc1O | 100 nM
COCCNc1ncc(C)c(-c2ccc3c(c2)CC[C@H](C)N3C(=O)c2ccc(O)cc2O)n1 | 100 nM
Cc1cnc(NC2CCCC2)nc1-c1ccc2c(c1)CC[C@H](C)N2C(=O)c1ccc(O)cc1O | 1000 nM
C[C@H]1CCc2cc(-c3nc4ccccc4nc3C(F)(F)F)ccc2N1C(=O)c1ccc(O)cc1O | 100 nM
COc1ccc(-c2ccc3c(c2)CC[C@H](C)N3C(=O)c2ccc(O)cc2O)c(Cl)c1 | 1000 nM
C[C@H]1CCc2cc(-c3ccc(N4CCCC4)nn3)ccc2N1C(=O)c1ccc(O)cc1O | 100 nM
C[C@H]1CCc2cc(-c3ccnc(N)n3)ccc2N1C(=O)c1ccc(O)cc1O | 100 nM
Cc1nccn1-c1ccc(-c2ccc3c(c2)CC[C@H](C)N3C(=O)c2ccc(O)cc2O)nn1 | 100 nM
C[C@H]1CCc2cc(-c3nc(C(F)(F)F)nc4ccccc34)ccc2N1C(=O)c1ccc(O)cc1O | 1000 nM
C[C@H]1CCc2cc(-c3cc4occc4cn3)ccc2N1C(=O)c1ccc(O)cc1O | 100 nM
C[C@H]1CCc2cc(-c3nc(-c4ccsc4)nc4ccccc34)ccc2N1C(=O)c1ccc(O)cc1O | 1000 nM
C[C@H]1CCc2cc(-c3nc4ccc(Cl)cc4cc3CO)ccc2N1C(=O)c1ccc(O)cc1O | 100 nM
C[C@H]1CCc2cc(-c3cc4cncnc4[nH]3)ccc2N1C(=O)c1ccc(O)cc1O | 10 nM
CNc1ccc(-c2ccc3c(c2)CC[C@H](C)N3C(=O)c2ccc(O)cc2O)c(C)n1 | 100 nM
Cc1cncnc1-c1ccc2c(c1)CC[C@H](C)N2C(=O)c1ccc(O)cc1O | 100 nM
Cc1cc(Cl)nnc1-c1ccc2c(c1)CC[C@H](C)N2C(=O)c1ccc(O)cc1O | 10 nM
Cc1cnc(NCCN(C)C)nc1-c1ccc2c(c1)CC[C@H](C)N2C(=O)c1ccc(O)cc1O | 1000 nM
Cc1nc(N(C)C)nc(-c2ccc3c(c2)CC[C@H](C)N3C(=O)c2ccc(O)cc2O)c1C | 1000 nM
Cc1cc(-c2ccc3c(c2)CC[C@H](C)N3C(=O)c2ccc(O)cc2O)nnc1Cl | 100 nM
C[C@H]1CCc2cc(-c3nncc4ccccc34)ccc2N1C(=O)c1ccc(O)cc1O | 100 nM
C[C@H]1CCc2cc(-c3ncnc4ccc(Cl)cc34)ccc2N1C(=O)c1ccc(O)cc1O | 100 nM
Cc1cc(S(=O)(=O)N2CCCC2)cnc1-c1ccc2c(c1)CC[C@H](C)N2C(=O)c1ccc(O)cc1O | 100 nM

SMILES | IC50
CCc1nccnc1-c1ccc2c(c1)CC[C@H](C)N2C(=O)c1ccc(O)cc1O | 100 nM
C[C@H]1CCc2cc(-c3nc4cc(Cl)ccc4o3)ccc2N1C(=O)c1ccc(O)cc1O | 10000 nM
CC(=O)Nc1ccc(-c2ccc3c(c2)CC[C@H](C)N3C(=O)c2ccc(O)cc2O)c(C)n1 | 100 nM
C[C@H]1CCc2cc(-c3nccc4occc34)ccc2N1C(=O)c1ccc(O)cc1O | 1000 nM
Cc1cc(S(=O)(=O)N(C)C)cnc1-c1ccc2c(c1)CC[C@H](C)N2C(=O)c1ccc(O)cc1O | 10 nM
Cc1cc2cc(F)ccc2nc1-c1ccc2c(c1)CC[C@H](C)N2C(=O)c1ccc(O)cc1O | 1000 nM
C[C@H]1CCc2cc(-c3ccc(OCCN4CCCC4)nn3)ccc2N1C(=O)c1ccc(O)cc1O | 1000 nM
Cc1ccc(-c2ccc3c(c2)CC[C@H](C)N3C(=O)c2ccc(O)cc2O)c(Cl)c1 | 1000 nM
C[C@H]1CCc2cc(-c3cc4nccnc4cn3)ccc2N1C(=O)c1ccc(O)cc1O | 100 nM
Cc1ccc[n+]([O-])c1-c1ccc2c(c1)CC[C@H](C)N2C(=O)c1ccc(O)cc1O | 100 nM
CCCc1cncnc1-c1ccc2c(c1)CC[C@H](C)N2C(=O)c1ccc(O)cc1O | 100 nM
C[C@H]1CCc2cc(-c3ccc(N)nn3)ccc2N1C(=O)c1ccc(O)cc1O | 100 nM
C[C@H]1CCc2cc(-c3nc(-c4ccccc4)nc4ccccc34)ccc2N1C(=O)c1ccc(O)cc1O | 1000 nM
Cc1cc(-c2ccc3c(c2)CC[C@H](C)N3C(=O)c2ccc(O)cc2O)cnc1Cl | 1000 nM
C[C@H]1CCc2cc(-c3ncccc3CO)ccc2N1C(=O)c1ccc(O)cc1O | 100 nM
C[C@H]1CCc2cc(-c3cnc4ccccc4n3)ccc2N1C(=O)c1ccc(O)cc1O | 1000 nM
Cc1cc(S(=O)(=O)NCc2ccccc2)cnc1-c1ccc2c(c1)CC[C@H](C)N2C(=O)c1ccc(O)cc1O | 10 nM
CCOc1ccc2nc(-c3ccc4c(c3)CC[C@H](C)N4C(=O)c3ccc(O)cc3O)c(C)cc2c1 | 1000 nM
C[C@H]1CCc2cc(-c3ccc(-n4ccnc4)nn3)ccc2N1C(=O)c1ccc(O)cc1O | 100 nM
COc1cc(-c2ccc3c(c2)CC[C@H](C)N3C(=O)c2ccc(O)cc2O)cnc1OC | 100 nM
C[C@H]1CCc2cc(-c3nc(C(N)=O)nc4ccccc34)ccc2N1C(=O)c1ccc(O)cc1O | 100 nM
Cc1cnc(C)c(-c2ccc3c(c2)CC[C@H](C)N3C(=O)c2ccc(O)cc2O)n1 | 100 nM

SMILES | IC50
CCc1cc2ccccc2nc1-c1ccc2c(c1)CC[C@H](C)N2C(=O)c1ccc(O)cc1O | 1000 nM
Cc1cn(-c2ccc(-c3ccc4c(c3)CC[C@H](C)N4C(=O)c3ccc(O)cc3O)nn2)cn1 | 100 nM
CSc1nc2c(c(-c3ccc4c(c3)CC[C@H](C)N4C(=O)c3ccc(O)cc3O)n1)CCC2 | 1000 nM
CCc1cnc(C)nc1-c1ccc2c(c1)CC[C@H](C)N2C(=O)c1ccc(O)cc1O | 100 nM
CCOC(=O)c1nc(-c2ccc3c(c2)CC[C@H](C)N3C(=O)c2ccc(O)cc2O)c2ccccc2n1 | 100 nM
Cc1c(-c2ccc3c(c2)CC[C@H](C)N3C(=O)c2ccc(O)cc2O)ccc2[nH]ncc12 | 1000 nM
C[C@H]1CCc2cc(-c3ccc(-c4ccccc4)cn3)ccc2N1C(=O)c1ccc(O)cc1O | 10000 nM
COc1ccccc1-c1ccc2c(c1)CC[C@H](C)N2C(=O)c1ccc(O)cc1O | 100 nM
COc1ccc2nc(-c3ccc4c(c3)CC[C@H](C)N4C(=O)c3ccc(O)cc3O)c(C)cc2c1 | 100 nM
CNc1nnc(-c2ccc3c(c2)CC[C@H](C)N3C(=O)c2ccc(O)cc2O)c2ccccc12 | 100 nM
C[C@H]1CCc2cc(-c3ncncc3C#N)ccc2N1C(=O)c1ccc(O)cc1O | 100 nM
CSc1nc(Cl)cc(-c2ccc3c(c2)CC[C@H](C)N3C(=O)c2ccc(O)cc2O)n1 | 1000 nM
CC(=O)Nc1ccc(-c2ccc3c(c2)CC[C@H](C)N3C(=O)c2ccc(O)cc2O)c(C)c1 | 100 nM
Cc1cc2cc(Cl)ccc2nc1-c1ccc2c(c1)CC[C@H](C)N2C(=O)c1ccc(O)cc1O | 1000 nM
C[C@H]1CCc2cc(-c3cccc(C#N)c3)ccc2N1C(=O)c1ccc(O)cc1O | 1000 nM
C[C@H]1CCc2cc(-c3ccncc3C(F)(F)F)ccc2N1C(=O)c1ccc(O)cc1O | 100 nM
C[C@H]1CCc2cc(-c3ccc(-c4ccccc4Cl)cn3)ccc2N1C(=O)c1ccc(O)cc1O | 10000 nM
NC(=O)COc1ccc2c(c1)CCCN2C(=O)c1ccc(O)cc1O | 1000 nM
C[C@H]1CCc2cc(-c3nc4ccccc4cc3CO)ccc2N1C(=O)c1ccc(O)cc1O | 100 nM
C[C@H]1CCc2cc(-c3ccccc3Cl)ccc2N1C(=O)c1ccc(O)cc1O | 1000 nM
C[C@H]1CCc2cc(-c3nc(C(F)(F)F)ccc3C(F)(F)F)ccc2N1C(=O)c1ccc(O)cc1O | 1000 nM
CCOC(=O)c1nc(C)nc(-c2ccc3c(c2)CC[C@H](C)N3C(=O)c2ccc(O)cc2O)c1C | 1000 nM

SMILES | IC50
Cc1nc(NS(C)(=O)=O)ccc1-c1ccc2c(c1)CC[C@H](C)N2C(=O)c1ccc(O)cc1O | 100 nM
Cc1cc(S(=O)(=O)NCc2ccn(C)n2)cnc1-c1ccc2c(c1)CC[C@H](C)N2C(=O)c1ccc(O)cc1O | 100 nM
Cc1ccc(C)c(-c2ccc3c(c2)CC[C@H](C)N3C(=O)c2ccc(O)cc2O)n1 | 100 nM
Cc1cc(-c2ccc3c(c2)CC[C@H](C)N3C(=O)c2ccc(O)cc2O)cnc1N | 100 nM
Cc1cc(S(=O)(=O)N2CCCCC2)cnc1-c1ccc2c(c1)CC[C@H](C)N2C(=O)c1ccc(O)cc1O | 10 nM
Cc1cc(CNc2ccc(-c3ccc4c(c3)CC[C@H](C)N4C(=O)c3ccc(O)cc3O)c(C)n2)on1 | 100 nM
C[C@H]1CCc2cc(-c3ccc(Cl)cc3Cl)ccc2N1C(=O)c1ccc(O)cc1O | 1000 nM
COc1cc2ncnc(-c3ccc4c(c3)CC[C@H](C)N4C(=O)c3ccc(O)cc3O)c2cc1OC | 1000 nM
CNc1nccc(-c2ccc3c(c2)CC[C@H](C)N3C(=O)c2ccc(O)cc2O)n1 | 100 nM
Cc1cnc(OCCN(C)C)nc1-c1ccc2c(c1)CC[C@H](C)N2C(=O)c1ccc(O)cc1O | 100 nM
COc1ccc(OC)c(-c2ccc3c(c2)CC[C@H](C)N3C(=O)c2ccc(O)cc2O)c1 | 1000 nM
COc1cc(-c2ccc3c(c2)CC[C@H](C)N3C(=O)c2ccc(O)cc2O)ncn1 | 1000 nM
C[C@H]1CCc2cc(-c3ccc(NC4CC4)nn3)ccc2N1C(=O)c1ccc(O)cc1O | 1000 nM
Cc1nc(N)ccc1-c1ccc2c(c1)CC[C@H](C)N2C(=O)c1ccc(O)cc1O | 100 nM
Cc1nc(-c2ccc3c(c2)CC[C@H](C)N3C(=O)c2ccc(O)cc2O)c2ccccc2n1 | 100 nM
Cc1ncc(C)c(-c2ccc3c(c2)CC[C@H](C)N3C(=O)c2ccc(O)cc2O)n1 | 10 nM
Cc1cc2cccc(C)c2nc1-c1ccc2c(c1)CC[C@H](C)N2C(=O)c1ccc(O)cc1O | 1000 nM
C[C@H]1CCc2cc(-c3ccc(N4CCOCC4)nn3)ccc2N1C(=O)c1ccc(O)cc1O | 1000 nM
Cc1cc(S(=O)(=O)NCCN(C)C)cnc1-c1ccc2c(c1)CC[C@H](C)N2C(=O)c1ccc(O)cc1O | 10 nM
Cc1cc2ccc(F)cc2nc1-c1ccc2c(c1)CC[C@H](C)N2C(=O)c1ccc(O)cc1O | 100 nM
C[C@H]1CCc2cc(-c3ccc(Cl)nc3)ccc2N1C(=O)c1ccc(O)cc1O | 1000 nM
Cc1nccnc1-c1ccc2c(c1)CC[C@H](C)N2C(=O)c1ccc(O)cc1O | 100 nM
